Reference: patent publication US20210022340A1, “USE OF PYRIDINE UREA COMPOUND HAVING SNAIL-KILLING ACTIVITY” (priority 2017, published 2021)
Converted amounts (≈) assume the structure as drawn.

Legend:
Oncomelania hupensis = assay: Snail-killing activity against Oncomelania hupensis (immersion method); format: in vivo; settings: 24 h, 24 hours of immersion, 25° C., linear interpolation, read-out: Oncomelania hupensis the LC50 values at the 24th hour
Protocol: (1): Snail-Killing Activity Against Oncomelania hupensis
Oncomelania hupensis was used as a tested sample and tested by the immersion method. Operation process: Weigh various samples accurately (compounds of any of Example 1 to Example 16), dissolve each sample with 0.2 mL of N,N-dimethylformamide, and dilute each sample to 0.2 mg/L of the drug solution with dechlorinated tap water. Put 30 snails in each beaker and pour 100 ml of the above-mentioned drug solution into each beaker. And cover the plastic gauze on the beaker to prevent the snails from climbing to the liquid surface. Place the above beakers accommodating the drug solution and snails in the incubator under the conditions which is at 25° C. constant temperature, and the humidity is maintained at 60%. and the light is fully. After 24 hours of immersion in the incubator, the drug solution is poured, and each sample is washed for 3 times by using water. Then, 15 mL of dechlorinated tap water is added to resuscitate each sample for 1 hour. Each sample is resuscitated for 1 hour again after 24 hours, and then activity of the snails is determined by knocking after 24 hours. Each sample was set to repeat 3 times. The tested concentrations were respectively 0.1 mg/L, 0.5 mg/L, 1 mg/L, 2 mg/L, 5 mg/L, and 10 mg/L. A linear interpolation method was used to draw a curve of the percentage of death at the 24th hour relative to the tested concentrations of the prepared compounds, thereby the LC50 values at the 24th hour are obtained.
A comparison was made with 0.2 mg/L of niclosamide (positive control) and water containing 0.2 mL/L of N,N-dimethylformamide (blank control).

Acute toxicity to fish = format: in vivo, Danio rerio; settings: Danio rerio, in vivo, pH 7, 96 hour test cycle, 23±1° C., linear interpolation; read-out: Danio rerio the LC50 values at the 96th hour
Protocol: (§1) (2): Study on Acute Toxicity to Fish
(§2) Tested substance: Compound of any of Example 1 to Example 16 of which tested concentrations were respectively 0 mg/L, 20 mg/L, 40 mg/L, 60 mg/L, 80 mg/L, and 100 mg/L.
(§3) Tested fish species: Danio rerio of which body length was 20±1 mm and weight was 0.3±0.1 g.
(§4) Test process: The tested fish was domesticated in continuous aerated diluted water for 7 days before the test. The water quality and lighting conditions during the domestication were consistent with the conditions during the test. Feeding was stopped 24 hours before the test. […] The water temperature during the test was constant at 23±1° C. The dissolved oxygen content during the test should be higher than 60% of the air saturation value, and the pH value was 7.0±0.2. The test cycle is 96 hours. The poisoning symptoms and mortality of the tested fish were observed and recorded at any time within 3 hours to 6 hours after starting the test, and then the poisoning symptoms and mortality of the tested fish at different concentrations were observed and recorded at 24th hour, 48th hour, 72th hour, and 96th hour. The criterion for judging dead fish is to knock the tail of the fish with glasses. If the fish had no action, it is judged that the fish was dead.
(§5) A linear interpolation method was used to draw the curve of the percentage of death relative to the tested concentrations of the compound prepared in Example 4 at 96 hour, thereby the LC50 values at 96th hour are obtained, which was treated with water as a blank control. The LC50 value of the other compound at 96th hour was obtained in this way.

Danio rerio [1] = assay: Acute toxicity to fish; format: in vivo; settings: 96 hour test cycle, 23±1° C., linear interpolation
Protocol: as §1, §2, §3, §4, §5

Danio rerio [2] = assay: Acute toxicity to fish; format: in vivo; settings: applied for 1 hour

| Compound | LC50 (Oncomelania hupensis) [mg/L] | LC50 at 96 h (Acute toxicity to fish) [mg/L] | Danio rerio the LC50 values at the 96th hour (Danio rerio [1]) [mg/L] | fish death (Danio rerio [2]) |
| --- | --- | --- | --- | --- |
| O=C(Nc1cccnc1)Nc1ccc(F)cc1F [Compound 1] | 5 (≈ 20.1 µM) | > 100 | – | – |
| O=C(Nc1ccc(OC(F)(F)F)cc1)Nc1cccnc1 [Compound 2] | 3.5 (≈ 11.8 µM) | > 100 | – | – |
| O=C(Nc1cccnc1)Nc1ccccc1F [Compound 3] | 4.8 (≈ 20.8 µM) | > 100 | – | – |
| O=C(Nc1cccnc1)Nc1cccc(Cl)c1 [Compound 4] | 5.8 (≈ 23.4 µM) | > 100 | – | – |
| O=C(Nc1cccnc1)Nc1ccc(F)cc1C(F)(F)F [Compound 5] | 8.9 (≈ 29.7 µM) | > 100 | – | – |
| O=C(Nc1cccnc1)Nc1ccccc1Cl [Compound 6] | 9.2 (≈ 37.1 µM) | > 100 | – | – |
| O=C(Nc1cccnc1)Nc1ccc(Cl)cc1C(F)(F)F [Compound 7] | 6.7 (≈ 21.2 µM) | > 100 | – | – |
| O=C(Nc1cccnc1)Nc1ccc(Cl)cc1Cl [Compound 8] | 5.8 (≈ 20.6 µM) | > 100 | – | – |
| O=C(Nc1cccnc1)Nc1cc(F)cc(F)c1 [Compound 9] | 4.3 (≈ 17.3 µM) | > 100 | – | – |
| O=C(Nc1ccc([N+](=O)[O-])cc1)Nc1cccnc1 [Compound 10] | 3.8 (≈ 14.7 µM) | > 100 | – | – |
| O=C(Nc1cccnc1)Nc1cccc(F)c1 [Compound 11] | 4.9 (≈ 21.2 µM) | > 100 | – | – |
| Cc1cccc(NC(=O)Nc2cccnc2)c1 [Compound 12] | 8.2 (≈ 36.1 µM) | > 100 | – | – |
| O=C(Nc1ccc(Br)cc1)Nc1cccnc1 [Compound 13] | ~0.5 (≈ 1.71 µM) | 15 (≈ 51.3 µM) | – | – |
| O=C(Nc1ccc(Cl)cc1)Nc1cccnc1 [Compound 14] | ~0.5 (≈ 2.02 µM) | 15 (≈ 60.6 µM) | – | – |
| Cc1ccccc1NC(=O)Nc1cccnc1 [Compound 15] | 7.2 (≈ 31.7 µM) | > 100 | – | – |
| Cc1ccc(NC(=O)Nc2cccnc2)cc1 [Compound 16] | 8.1 (≈ 35.6 µM) | > 100 | – | – |
| O=C(Nc1ccc([N+](=O)[O-])cc1Cl)c1cc(Cl)ccc1O [niclosamide, reference compound] | 0.6 (≈ 1.83 µM) | 0.21 (≈ 0.642 µM) | 0.2 | all fish is resulted in almost death |
